Results from article PMC10023787, “Trio-pharmacophore DNA-encoded chemical library for simultaneous selection of fragments and linkers” (Nature Communications, 2023).
Like-named read-outs stand apart in the source and are kept apart here. One block for each compound: values may come before it.

Tests used:
MMP-9 = target: T1, MMP-9 (Homo sapiens, UniProt P14780); assay: MMP-9 inhibition assay (fluorogenic peptide substrate); type: biochemical; parameters: remaining enzyme activity (% of control): scale not given here; conditions: for IC50: n.d: not detected
T1 construct: purchased Sino Biological 10327-HNAH
T1 sequence (P14780 107-707 limits assumed): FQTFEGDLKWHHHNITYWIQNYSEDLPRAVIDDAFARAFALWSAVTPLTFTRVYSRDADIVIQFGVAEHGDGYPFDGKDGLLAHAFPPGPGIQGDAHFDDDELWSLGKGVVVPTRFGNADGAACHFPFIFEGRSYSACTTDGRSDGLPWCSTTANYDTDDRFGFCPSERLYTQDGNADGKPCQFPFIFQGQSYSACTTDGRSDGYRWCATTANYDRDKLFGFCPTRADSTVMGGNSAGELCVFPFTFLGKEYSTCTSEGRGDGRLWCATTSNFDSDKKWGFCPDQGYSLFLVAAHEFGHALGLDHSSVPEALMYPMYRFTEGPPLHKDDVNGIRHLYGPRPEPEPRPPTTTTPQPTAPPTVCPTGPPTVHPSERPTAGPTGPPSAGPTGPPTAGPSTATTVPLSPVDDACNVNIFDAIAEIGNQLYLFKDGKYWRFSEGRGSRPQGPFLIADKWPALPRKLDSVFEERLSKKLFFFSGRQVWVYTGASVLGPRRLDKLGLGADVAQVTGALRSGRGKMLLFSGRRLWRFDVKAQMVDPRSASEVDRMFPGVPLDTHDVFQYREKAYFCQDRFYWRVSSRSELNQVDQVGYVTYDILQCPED
Experimental: (§1) The inhibition by the small molecule compounds against MMP-2/MMP-9 was measured using an assay probing the enzyme proteolytic activity on the substrate DNP-Pro-Leu-Gly-Met-Trp-Ser-Arg (Enzo Life Sciences, USA). All assays were performed in the assay buffer containing 50 mM Tris, 100 mM NaCl. 5 mM CaCl2, and 0.1% Brij 35, pH 7.5. Human proMMP-2 and proMMP-9 were purchased from Sino biological (Germany). The proMMPs were activated by 1 mM APMA in the assay buffer at 37 °C for 2 h. After activation, MMP-2 was diluted to 6.5 nM of final assay concentration, and MMP-9 was diluted by the buffer to reach 10 nM of final assay concentration. In each well, 49 μl of enzyme solution was incubated with 1 μl of compounds of series of concentration (nM-mM in DMSO) at RT for 30 min. 2 μl of the FRET substrate was added right before the measurement at a final concentration of 25 μM. The rate of hydrolysis was monitored by quantifying the emission at 360 nm (ex: 280 nm). The emission was measured with intervals of the 30 s for 30 min with Synergy H1 Plate Reader (Agilent, USA). The measurements were done in triplicate. […] Then, curves were plotted as a function of the concentration of the inhibitor against the relative enzyme activity. Vmax was derived from the detected […] signal for each concentration and logistic fitting was performed to obtain IC50 values using Origin 2019b (OriginLab).

MMP-2 = target: T2, MMP-2 (Homo sapiens, UniProt P08253); assay: MMP-2 inhibition assay (fluorogenic peptide substrate); type: biochemical; conditions: for IC50: n.d: not detected
T2 construct: purchased Sino Biological 10082-HNAH
T2 sequence (P08253 110-660): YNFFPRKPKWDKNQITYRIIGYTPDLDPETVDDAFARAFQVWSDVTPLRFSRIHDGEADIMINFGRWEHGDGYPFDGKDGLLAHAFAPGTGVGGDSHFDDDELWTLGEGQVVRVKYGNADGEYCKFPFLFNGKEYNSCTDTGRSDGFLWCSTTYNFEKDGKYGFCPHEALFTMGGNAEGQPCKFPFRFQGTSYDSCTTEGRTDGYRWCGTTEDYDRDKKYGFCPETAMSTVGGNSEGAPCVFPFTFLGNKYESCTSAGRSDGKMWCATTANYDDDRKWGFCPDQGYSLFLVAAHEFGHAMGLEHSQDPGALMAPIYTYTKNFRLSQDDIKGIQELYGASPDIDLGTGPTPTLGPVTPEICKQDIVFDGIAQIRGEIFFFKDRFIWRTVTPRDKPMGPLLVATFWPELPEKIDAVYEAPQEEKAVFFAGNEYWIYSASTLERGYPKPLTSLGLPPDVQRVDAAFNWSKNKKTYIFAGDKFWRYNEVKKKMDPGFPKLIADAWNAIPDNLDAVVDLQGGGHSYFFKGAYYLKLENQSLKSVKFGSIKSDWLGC
Experimental: as §1

[1] = mean ± SE, Fig. 5e prints no unit, µM, read-out: IC50
[2] = mean ± SE, Fig. 5d unit inferred, µM, read-out: IC50
[3] = Figure 5d, fragment combination joined by linker, read-out: MMP9 IC50
[4] = Figure 5d, fragment combination joined by linker, read-out: MMP2 IC50

remaining enzyme activity (% of control) (MMP-9; MMP-9, concentration 0.0429 µM): 93.34
remaining enzyme activity (% of control) (MMP-9; MMP-9, concentration 0.21 µM): 95.33
remaining enzyme activity (% of control) (MMP-9; MMP-9, concentration 1.07 µM): 103.77
remaining enzyme activity (% of control) (MMP-9; MMP-9, concentration 5.36 µM): 97.03
remaining enzyme activity (% of control) (MMP-9; MMP-9, concentration 26.80 µM): 82.56
remaining enzyme activity (% of control) (MMP-9; MMP-9, concentration 670.10 µM): 15.33
remaining enzyme activity (% of control) (MMP-9; MMP-9, concentration […]): 65.61
IC50 (MMP-9; [1]): 216 ± 47.3 µM
remaining activity (%) (MMP-2; MMP-2, concentration 0.00858 µM): 98.41
remaining activity (%) (MMP-2; MMP-2, concentration 0.0429 µM): 98.85
remaining activity (%) (MMP-2; MMP-2, concentration 0.21 µM): 87.72
remaining activity (%) (MMP-2; MMP-2, concentration 1.07 µM): 96.38
remaining activity (%) (MMP-2; MMP-2, concentration 5.36 µM): 85.18
remaining activity (%) (MMP-2; MMP-2, concentration 26.80 µM): 89.19
remaining activity (%) (MMP-2; MMP-2, concentration 670.10 µM): 1.11
remaining activity (%) (MMP-2; MMP-2, concentration […]): 61.21
IC50 (MMP-2; [2]): 184 ± 17.3 µM
Structure (SMILES): O=C(CSCCNC(=O)c1cncc(O)c1)NCC12CC3CC(CC(C3)C1)C2 [66+828 Linker 24]

IC50 (MMP-9; [3]): 216 µM
IC50 (MMP-2; [4]): 184 µM
Structure (SMILES): O=C(CSCCNC(=O)c1cncc(O)c1)NCC12CC3CC(CC(C3)C1)C2 [66_828 24]

remaining enzyme activity (% of control) (MMP-9; MMP-9, concentration 0.08 µM): 89.67
remaining enzyme activity (% of control) (MMP-9; MMP-9, concentration 0.39 µM): 88.12
remaining enzyme activity (% of control) (MMP-9; MMP-9, concentration 1.95 µM): 85.78
remaining enzyme activity (% of control) (MMP-9; MMP-9, concentration 9.75 µM): 75.76
remaining enzyme activity (% of control) (MMP-9; MMP-9, concentration 48.76 µM): 77.96
remaining enzyme activity (% of control) (MMP-9; MMP-9, concentration 243.80 µM): 22.66
remaining enzyme activity (% of control) (MMP-9; MMP-9, concentration 1219.00 µM): 0.00
IC50 (MMP-9; [1]): 143 ± 32.6 µM
remaining activity (%) (MMP-2; MMP-2, concentration 0.0156 µM): 89.30
remaining activity (%) (MMP-2; MMP-2, concentration 0.08 µM): 95.29
remaining activity (%) (MMP-2; MMP-2, concentration 0.39 µM): 92.88
remaining activity (%) (MMP-2; MMP-2, concentration 1.95 µM): 92.98
remaining activity (%) (MMP-2; MMP-2, concentration 9.75 µM): 84.05
remaining activity (%) (MMP-2; MMP-2, concentration 48.76 µM): 61.94
remaining activity (%) (MMP-2; MMP-2, concentration 243.80 µM): 24.12
remaining activity (%) (MMP-2; MMP-2, concentration 1219.00 µM): 0.00
IC50 (MMP-2; [2]): 95.5 ± 35.1 µM
Structure (SMILES): O=C(Cn1cnc2c(oc3ccccc32)c1=O)NCc1c[nH]nn1 [182+787 Linker 1]

More lines, now with the values behind:

Structure (SMILES): O=C(C=CCCCCC(=O)NCc1c[nH]nn1)CC(=O)NCC12CC3CC(CC(C3)C1)C2 [66_787 12]
IC50 (MMP-9; [3]): 115 µM
IC50 (MMP-2; [4]): 339 µM

Structure (SMILES): O=C(CNC(=O)NC12CC3CC(CC(C3)C1)C2)NCCOCCOCCNC(=O)c1cncc(O)c1 [66_828 10]
IC50 (MMP-9; [3]): 521 µM
IC50 (MMP-2; [4]): 293 µM

Structure (SMILES): O=C(/C=C/CCCCNC(=O)c1cncc(O)c1)CC(=O)NCC12CC3CC(CC(C3)C1)C2 [66_828 12]
IC50 (MMP-9; [3]): 77.4 µM
IC50 (MMP-2; [4]): 488 µM
